How the values were obtained:
[1] = molecular target: T1, adenosine A2A receptor (A2AR) (Homo sapiens, UniProt P29274); assay: A2AR/TREx CHO cAMP functional assay (antagonist mode, NECA EC80); type: cell-based
T1 construct: expressed in transfected cells
Experimental: Functional assays may also be employed to assess the compounds of the present invention. The cAMP assay described in detail below was used to evaluate certain compounds described herein.
Measurement of the Adenosine Receptor Activity of Compound I Using a A2AR/TREx CHO cAMP Functional Assay
Dose response of NECA (5-N-ethylcarboxamidoadenosine), a non-selective adenosine receptor agonist, was performed daily to determine the EC80 of NECA used in the cAMP functional assay. 1000-2500 cells/well of stably expressed A2AR TRex CHO cells were seeded to the 384-well Opti plate (Perkin Elmer) followed by incubating NECA at varies concentrations (ranging from 10 μM to 0 μM) at 37° C. for 30 min. […] FRET signal was detected with Envision multilabel plate reader (Perkin Elmer) when Eu-cAMP tracer excitation at 615 nm and emission at 665 nm. […]
The cAMP antagonist functional assay (Perkin Elmer) was performed on A2AR TRex CHO stable cell lines. […] FRET signal was detected when Eu-cAMP tracer excitation at 615 nm and emission at 665 nm. […]
Particular compounds were evaluated for adenosine A2A receptor activity as described for the cAMP assay above. […]

A2BR = molecular target: T2, A2BR (Homo sapiens, UniProt P29275); assay: Potency on A2BR (no method described); details: summary statement
T2 sequence (P29275 1-332): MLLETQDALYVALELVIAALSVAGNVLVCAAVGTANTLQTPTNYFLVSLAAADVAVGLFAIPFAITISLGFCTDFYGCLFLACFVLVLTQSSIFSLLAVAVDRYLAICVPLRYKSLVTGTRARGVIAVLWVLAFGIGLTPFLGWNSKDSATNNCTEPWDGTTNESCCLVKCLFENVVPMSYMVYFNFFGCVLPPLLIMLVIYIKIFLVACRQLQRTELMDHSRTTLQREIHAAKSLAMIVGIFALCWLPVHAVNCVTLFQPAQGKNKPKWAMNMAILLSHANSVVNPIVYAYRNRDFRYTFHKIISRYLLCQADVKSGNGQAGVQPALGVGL

T1 sequence (P29274 whole entry): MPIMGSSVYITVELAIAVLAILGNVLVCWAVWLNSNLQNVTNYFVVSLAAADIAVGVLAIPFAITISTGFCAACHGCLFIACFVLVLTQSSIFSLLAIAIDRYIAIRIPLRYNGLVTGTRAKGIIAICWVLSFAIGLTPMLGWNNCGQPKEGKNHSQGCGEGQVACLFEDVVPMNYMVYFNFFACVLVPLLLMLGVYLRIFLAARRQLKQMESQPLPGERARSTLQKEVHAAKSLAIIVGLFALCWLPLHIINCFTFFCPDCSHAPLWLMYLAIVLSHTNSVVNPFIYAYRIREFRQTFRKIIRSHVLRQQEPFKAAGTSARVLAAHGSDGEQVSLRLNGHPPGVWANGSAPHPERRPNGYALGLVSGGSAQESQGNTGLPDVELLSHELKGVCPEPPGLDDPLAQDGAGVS

- Kb [1]: < 10 nM
- potency on A2AR (antagonist) ([1]; summary statement): less than 10 nM
- potency on A2BR (antagonist) (A2BR): less than 10 nM
Structure (SMILES): Cc1c(C#N)cccc1-c1cc(-c2cn(Cc3cccc(C(C)(C)O)n3)nn2)nc(N)n1 [Compound I, 3-[2-amino-6-(1-{[6-(2-hydroxypropan-2-yl)pyridin-2-yl]methyl}-1H-1,2,3-triazol-4-yl)pyrimidin-4-yl]-2-methylbenzonitrile]
